A word on the EC50: it is the concentration giving half of the maximal effect. A lower EC50 goes with an effect from little substance.

Each structure is given as a SMILES string.

One test deals with T1, Regulator of G-protein signaling 7 (Homo sapiens, UniProt P49802).
T1 sequence (P49802 whole entry): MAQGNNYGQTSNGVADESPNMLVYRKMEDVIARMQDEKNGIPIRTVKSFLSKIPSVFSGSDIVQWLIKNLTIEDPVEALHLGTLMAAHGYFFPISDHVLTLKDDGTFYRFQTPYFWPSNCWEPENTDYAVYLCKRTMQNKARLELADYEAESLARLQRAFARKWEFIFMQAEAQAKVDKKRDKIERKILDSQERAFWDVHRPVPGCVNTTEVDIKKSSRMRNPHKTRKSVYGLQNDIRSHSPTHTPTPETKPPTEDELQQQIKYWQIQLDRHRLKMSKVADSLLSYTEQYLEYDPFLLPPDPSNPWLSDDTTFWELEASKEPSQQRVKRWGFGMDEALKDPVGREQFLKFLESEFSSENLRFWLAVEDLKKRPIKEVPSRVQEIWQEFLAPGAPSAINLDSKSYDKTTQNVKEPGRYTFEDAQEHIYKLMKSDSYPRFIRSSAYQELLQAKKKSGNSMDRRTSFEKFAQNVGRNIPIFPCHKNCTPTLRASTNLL
Kind of test: small molecules altering RGS7 interaction with Galphao – biochemical, multiplexed bead flow cytometry, SAR compounds, SAR follow-up (AID 2296).
Settings: not given
A general note: In flow cytometry, cells or beads pass a laser one at a time.
Regarding `Cc1cccc(N2CCN(C(=O)CN3CCc4nc(C)cc(C)c4C3=O)CC2C)c1` (stereo unspecified) [KUC103675N], the EC50 was over 30000 nM.
The compound `CN1CCN(C2=C(Cl)C(=O)C(c3cnc(N4CCCCC4)s3)=C(Cl)C2=O)CC1` registered a concentration giving a half-maximal response (EC50) of 87 nM. That is a double-digit nanomolar value.
On the same count and under the same terms, then `Cc1cc(C)c2c(=O)n(CC(=O)N3CCN(c4ccccc4)CC3)ccc2n1` [2,4-dimethyl-6-[2-oxidanylidene-2-(4-phenylpiperazin-1-yl)ethyl]-1,6-naphthyridin-5-one], with 67 nM; and `O=c1c2ccccc2sn1-c1ccc(S(=O)(=O)N2CCCC2)cc1` [2-(4-pyrrolidin-1-ylsulfonylphenyl)-1,2-benzothiazol-3-one], with over 30000 nM.
In turn, `CCN=c1scc(C)n1N=Cc1ccc(O)c(O)c1O` came in with a concentration giving a half-maximal response (EC50) of 449 nM.
Same read-out and setting: the figure for `Cc1cccc(N2CCN(C(=O)Cn3ccc4nc(C)cc(C)c4c3=O)CC2C)c1` (stereo unspecified) [2,4-dimethyl-6-[2-[3-methyl-4-(3-methylphenyl)piperazin-1-yl]-2-oxidanylidene-ethyl]-1,6-naphthyridin-5-one] is over 30000 nM; for `Cc1cccc(N2CCN(C(=O)COc3nsc4nc(C)cc(C)c34)CC2C)c1` (stereo unspecified) it is over 30000 nM.
The compound `CCC(=O)NC(c1ccc(C)cc1)c1cc([N+](=O)[O-])c2cccnc2c1O` (stereo unspecified) [MLS000553854] came in with an EC50 of 4410 nM.
Turning to `O=C(COc1ccccc1C(=O)NN=Cc1ccc(O)c(O)c1)NN=Cc1ccc(O)c(O)c1` [N''-[(Z)-(3-hydroxy-4-oxo-1-cyclohexa-2,5-dienylidene)methyl]-2-[2-[[(Z)-(3-hydroxy-4-oxo-1-cyclohexa-2,5-dienylidene)methyl]hydrazo]-2-oxoethoxy]benzohydrazide], the concentration for a half-maximal effect (EC50) is over 30000 nM.
Compound `CN=c1scc(C)n1N=Cc1ccc(O)c(O)c1O` [(4E)-2,3-dihydroxy-4-[[(4-methyl-2-methylimino-1,3-thiazol-3-yl)amino]methylidene]cyclohexa-2,5-dien-1-one] had a concentration for a half-maximal effect (EC50) of 244 nM. In other words, the sub-micromolar range.
On the same count and under the same terms, the figure for `Cc1cc(Cl)ccc1/N=c1/ssnc1Cl` [MLS000539990] is over 30000 nM; for `COC(=O)CCC(=O)Nc1sc(C)c(C)c1C(N)=O` [4-[(3-carbamoyl-4,5-dimethyl-2-thienyl)amino]-4-keto-butyric acid methyl ester] it is over 30000 nM; for `O=C(NCCCN1CCOCC1)c1sc2cc([N+](=O)[O-])ccc2c1Cl` [3-chloranyl-N-(3-morpholin-4-ylpropyl)-6-nitro-1-benzothiophene-2-carboxamide] it is over 30000 nM.
The same measure, in the same setting: the figure for `O=C1C(Cl)=C(N2CCCCC2)C(=O)C(Cl)=C1c1cnc(N2CCCCC2)s1` [MLS000550549] is 158 nM; for `Cc1cc(C)c2c(n1)CCN(CC(=O)N1CCN(c3ccccc3)CC1)C2=O` [2,4-dimethyl-6-[2-oxidanylidene-2-(4-phenylpiperazin-1-yl)ethyl]-7,8-dihydro-1,6-naphthyridin-5-one] it is over 30000 nM; for `O=C(Cc1csc(N2CCOCC2)n1)NN=Cc1ccc(O)c(O)c1O` [SMR000369439] it is 421 nM.
On the same count and under the same terms, then `CCOC(=O)c1sc(NC(=O)CSc2nnc(Cc3ccccc3)o2)c(C#N)c1C` [4-cyano-3-methyl-5-[[1-oxo-2-[[5-(phenylmethyl)-1,3,4-oxadiazol-2-yl]thio]ethyl]amino]-2-thiophenecarboxylic acid ethyl ester], with over 30000 nM; and `Cc1cccc(N2CCN(C(=O)Cn3sc4nc(C)cc(C)c4c3=O)CC2C)c1` (stereo unspecified) [2-[2-keto-2-[3-methyl-4-(m-tolyl)piperazino]ethyl]-4,6-dimethyl-isothiazolo[5,4-b]pyridin-3-one], with over 30000 nM.
On to `Cc1[nH]n(-c2ccccc2)c(=S)c1C=NCCCN=Cc1c(C)[nH]n(-c2ccccc2)c1=S`, for which the EC50 was found to be 2200 nM.
Same read-out and setting: then `Cc1[nH]n(-c2ccccc2)c(=S)c1/C=N/c1cccc([N+](=O)[O-])c1` [(4E)-5-methyl-4-[(3-nitroanilino)methylene]-2-phenyl-2-pyrazoline-3-thione], with over 30000 nM; and `Cc1cccc(N2CCN(C(=O)COc3noc4nc(C)cc(C)c34)CC2C)c1` (stereo unspecified) [2-[(4,6-dimethyl-[1,2]oxazolo[5,4-b]pyridin-3-yl)oxy]-1-[3-methyl-4-(3-methylphenyl)piperazin-1-yl]ethanone], with over 30000 nM.
On the same count and under the same terms, the figure for `CCN(CC)S(=O)(=O)c1cccc(-c2n[nH]c(=S)n2N=Cc2ccc(C(=O)OC)cc2)c1` [4-[(E)-[3-[3-(diethylsulfamoyl)phenyl]-5-thioxo-1H-1,2,4-triazol-4-yl]iminomethyl]benzoic acid methyl ester] is over 30000 nM; for `O=c1c2ccccc2sn1-c1ccccc1` [2-phenyl-1,2-benzothiazol-3-one] it is over 30000 nM; for `Nc1c(C(=O)NCC2CCCO2)sc2nc3c(c(-c4ccco4)c12)CC/C3=C/c1ccco1` (stereo unspecified) [UNM-0000305796] it is 146 nM.
As for `NS(=O)(=O)c1ccc(N=NCc2ccc(O)c(O)c2O)c([N+](=O)[O-])c1` [4-[[(E)-(2,3-dihydroxy-4-oxo-1-cyclohexa-2,5-dienylidene)methyl]hydrazo]-3-nitrobenzenesulfonamide], the EC50 was determined as 141 nM. The EC50 values of the last two compounds are within 1.5-fold of each other.
The same measure, in the same setting: then `CC1(C)OC(=O)C(=Cc2ccc(-c3ccc(S(N)(=O)=O)cc3)o2)C(=O)O1` [SMR000273939], with 1870 nM; and `COc1ccc(C2=CC(=O)C=CC2=O)cc1` [MLS001029846], with 356 nM.
The same measure, in the same setting: the figure for `CC(=O)OCCCNc1cc(Sc2nc3ccccc3s2)c2nonc2c1[N+](=O)[O-]` [MLS000521052] is over 30000 nM; for `CCN(CC)S(=O)(=O)c1cccc(C(=O)NN=Cc2ccc(O)c(O)c2O)c1` it is 381 nM; for `CC(NC(=O)c1sc2cc([N+](=O)[O-])ccc2c1Cl)C(C)(C)C` (stereo unspecified) [3-chloranyl-N-(3,3-dimethylbutan-2-yl)-6-nitro-1-benzothiophene-2-carboxamide] it is over 30000 nM.

Still in this test, the particulars now being: inactive by the depositor's call.
In turn, `CCOc1ccccc1-c1c2cc(O)c(=O)cc-2oc2cc(O)c(O)cc12` [MLS000578271] came in with a half-maximal effective concentration (EC50) of 3570 nM.

The values are drawn from BindingDB's records for doi:10.7270/Q2416VG3 (Nmmlsc, 2010).
